Assays:
HepG2 cells [1] = assay: CCK-8 cell viability; type: cell-based, human; conditions: 24 h, 50
Experimental: (§1) Human liver cancer cell line HepG2 were grown in DMEM containing 10% FBS and 1% penicillin/streptomycin at 37 °C in a humidified atmosphere of 5% CO2. HepG2 cells (1.2 × 10^5 cells/well) were seeded in a 4-well glass plate for 24 h. Then, SNCPs@st-p53pep (0.02 mg/mL) and st-p53pep alone (2 μM) were added to each well in a serum-free medium for 4 h. After incubation, the cells were carefully rinsed with PBS, and the medium was replaced with a serum-containing fresh medium. After the nucleus was stained with Hoechst 33342 staining kit by manufacturer’s protocol, bright field and fluorescence images were obtained by using a DeltaVision Elite Microscopy System (GE Healthcare, USA). To observe the distribution of SNCP8 and st-p53pep in cells, TAMRA-labeled SNCP8@FAM-labeled st-p53pep (0.25 mg/mL) was treated in the same manner instead of SNCP8@st-p53pep. And then, the Mander’s overlap coefficient (MOC) was calculated in the Image J program (ver. 1.52a) via the JACoP plugin to identify co-localization between fluorescence signals over time. […] The cell viability was determined using cell counting kit-8 (CCK-8) assay by monitoring absorbance at 450 and 670 nm wavelength measured using a microplate reader (Molecular Devices, Inc., USA). The EC50 values of SNCPs@st-p53pep were determined by the logistic curve-fitting method with Origin (OriginLab, USA).

p53 in HepG2 cells = assay: Western blot, p53 protein level; type: cell-based, human
Experimental: (§2) Cells were lysed with Pro-PREP (IntronBio, Korea) according to the manufacturer’s protocol. The samples were centrifuged at 2000 × g and 4 °C for 15 min. The supernatant was collected to a 1.5 mL ep-tube and stored at −80 °C. After protein quantification using Pierce^TM BCA assay kit (Thermo Fisher Scientific, USA), the same amount of protein was diluted in water containing 5×loading buffer (Biosesang, Korea) and loaded on SDS-PAGE gel (Bio-rad, USA). After electrophoresis in Tris-Glycine SDS buffer at 80 V for 120 min, proteins in a gel were transferred to a nitrocellulose membrane (0.45 μm, Bio-rad, USA) in 1× Tris-Glycine Native Buffer (GenDEPOT, Korea) with 10% methanol at 90 V, and 4 °C for 90 min under stirring condition. The membrane was blocked with 5% milk to inhibit non-specific binding and immersed overnight at 4 °C in the presence of primary antibodies; GAPDH (1:2000, Abcam, USA), p53 (1:1000, Cell signaling, USA), MDM2 (1:1000, Cell signaling, USA), Bcl2 (1:1000, Cell signaling, USA) and CytC (1:1000, Cell signaling, USA). Anti-rabbit goat pAb, horseradish peroxidase (HRP)-linked antibody (1:5000, Abcam, USA) was used as a secondary antibody and the membrane was incubated for 1 h. After the reaction with the detection agent West Pico PLUS (Thermo Fisher Scientific, USA), bands of protein were monitored by a ImageQuant^TM LAS 4000 mini (GE Healthcare, USA). […]

MDM2 in HepG2 cells = assay: Western blot, MDM2 protein level; type: cell-based, human
Experimental: as §2

CytC in HepG2 cells = assay: Western blot, cytochrome c protein level; type: cell-based, human
Experimental: as §2

Bcl2 in HepG2 cells = assay: Western blot, Bcl2 protein level; type: cell-based, human
Experimental: as §2

[2] = tested on: human liver cancer (HepG2) xenograft; assay: Tumor growth inhibition, intratumoral injection; type: in vivo, Balb/c male nude mice; conditions: HepG2 xenograft mice; intratumoral every 3 days, 14 days; 50 mg SNCP8/kg, 5 μmole st-p53pep/kg; n = 3; versus untreated control
Experimental: All of animal experiments were conducted in accordance with the Institutional Animal Care and Use Committees (IACUC) of Seoul National University. 5-week old Balb/c male nude mice were purchased (ORIENT BIO, Korea). Mice were housed in an environmentally controlled room (23 °C, with 55 ± 5% humidity and 12 h / 12 h light–dark cycle). To prepare tumor-bearing mice, a suspension of the HepG2 cells (6 × 10^6 cells) in 100 µL of sterilized PBS was subcutaneously injected (n = 3, biologically independent animals). Tumor-bearing mice were reared until the tumor volumes reach ~50 mm^3 and used for experiments. […] The changes in tumor volume and body weight were monitored over 14 days. Tumor volumes were calculated by using the equation of 1/2 × length × (width)^2, where the length and width are the longest and shortest diameters (mm) of the tumor, respectively. […] Bright field and fluorescence images from mice were obtained overtime for 3 days by using fluorescence in vivo imaging system, FoBI (Neoscience, Korea). The relative intensity of FAM fluorescence attached to st-p53pep was calculated by using the region of interest (ROI) analysis. The half-life of FAM fluorescence decay was determined by exponential curve fitting method with Origin 2017 (OriginLab, USA).

[3] = Whole-body FAM fluorescence decay in tumor after intratumoral injection; type: in vivo, Balb/c male nude mice; conditions: for rel. fluor. Int. (FAM): tumor ROI
Experimental: All of animal experiments were conducted in accordance with the Institutional Animal Care and Use Committees (IACUC) of Seoul National University. 5-week old Balb/c male nude mice were purchased (ORIENT BIO, Korea). Mice were housed in an environmentally controlled room (23 °C, with 55 ± 5% humidity and 12 h / 12 h light–dark cycle). To prepare tumor-bearing mice, a suspension of the HepG2 cells (6 × 10^6 cells) in 100 µL of sterilized PBS was subcutaneously injected (n = 3, biologically independent animals). Tumor-bearing mice were reared until the tumor volumes reach ~50 mm^3 and used for experiments. To investigate tumor growth inhibition efficiency, SNCP8@st-p53pep, SNCP8, and st-p53pep alone in 100 μL of PBS solution (50 mg SNCP8/kg, 5 μmole st-p53pep/kg) were directly injected into the tumor. The same volume of PBS solution was also directly treated into the tumor as a control. Intratumoral injection was performed at 3 day intervals. The changes in tumor volume and body weight were monitored over 14 days. Tumor volumes were calculated by using the equation of 1/2 × length × (width)^2, where the length and width are the longest and shortest diameters (mm) of the tumor, respectively. The relative tumor volume was derived from comparing it with the initial tumor volume. To observe sustainability and tumor exposure of st-p53pep in vivo, we used nude mice with HeLa and HepG2 cell xenografts prepared in the same manner as the tumor growth inhibition experiment. TAMRA-labeled SNCP8@ FAM-labeled st-p53pep was treated in the same manner as the tumor growth inhibition experiment instead of SNCP8@st-p53pep. Bright field and fluorescence images from mice were obtained overtime for 3 days by using fluorescence in vivo imaging system, FoBI (Neoscience, Korea). The relative intensity of FAM fluorescence attached to st-p53pep was calculated by using the region of interest (ROI) analysis. The half-life of FAM fluorescence decay was determined by exponential curve fitting method with Origin 2017 (OriginLab, USA).

HepG2 cells [4] = assay: Cellular uptake and intracellular distribution, fluorescence microscopy; type: cell-based, human; conditions: SNCPs@st-p53pep 0.02 mg/mL or st-p53pep 2 μM, serum-free medium 4 h
Experimental: as §1

[5] = Water solubility (in words); type: physicochemical

rel. fluor. Int. (FAM) ([3]; 0 hours after intratumoral injection): 70000
rel. fluor. Int. (FAM) ([3]; 6 hours after intratumoral injection): 21050
rel. fluor. Int. (FAM) ([3]; 12 hours after intratumoral injection): 7081
rel. fluor. Int. (FAM) ([3]; 24 hours after intratumoral injection): 501
rel. fluor. Int. (FAM) ([3]; 48 hours after intratumoral injection): 1
rel. fluor. Int. (FAM) ([3]; 72 hours after intratumoral injection): 1
time until green fluorescence signal in tumor disappeared ([3]; tumor-bearing mouse, intratumoral injection): ≤ 24 h
half-life (t1/2) of green (FAM) fluorescence decay in tumor ([3]; tumor-xenograft mice, intratumoral injection, ROI analysis of whole-body image, exponential fit): 3.5 h
solubility in water (in words) [5]: poor water solubility
Structure (SMILES): CC(C)C[C@@H]1NC(=O)[C@H](CC(C)C)NC(=O)[C@H](CCCNC(=N)N)NC(=O)[C@H](Cc2c[nH]c3ccccc23)NC(=O)[C@H](CC(C)C)NC(=O)[C@H](CC(N)=O)NC(=O)[C@H](NC(=O)[C@H](Cc2ccccc2)NC(=O)[C@@H](NC(=O)[C@H](CCC(N)=O)NC(=O)[C@H](CCC(N)=O)NC(=O)[C@H](CO)NC(=O)[C@H](CCC(N)=O)NC(=O)CNC(=O)CNC(=O)c2ccc3c(c2)C(=O)OC32c3ccc(O)cc3Oc3cc(O)ccc32)[C@@H](C)O)CCCCNC(=O)CCc2cn(nn2)CCC[C@@H](C(=O)N[C@@H](CCC(N)=O)C(=O)N[C@@H](CC(N)=O)C(N)=O)NC1=O [st-p53pep]
cell viability at corresponding dose (HepG2 cells [1]): more than 80%
p53 level relative to Control (p53 in HepG2 cells; /GAPDH, Control = 1): 1.126
p53 rel. (/GAPDH) (p53 in HepG2 cells; intensity divided by GAPDH): 0.7745
MDM2 level relative to Control (MDM2 in HepG2 cells; /GAPDH, Control = 1): 0.8607
MDM2 rel. (/GAPDH) (MDM2 in HepG2 cells; intensity divided by GAPDH): 0.7522
CytC level relative to Control (CytC in HepG2 cells; /GAPDH, Control = 1): 1.304
CytC rel. (/GAPDH) (CytC in HepG2 cells; intensity divided by GAPDH): 0.81
Bcl2 level relative to Control (Bcl2 in HepG2 cells; /GAPDH, Control = 1): 1.005
Bcl2 rel. (/GAPDH) (Bcl2 in HepG2 cells; intensity divided by GAPDH): 0.9585
growth of tumor volume (in words) [2]: no notable difference
cellular uptake: green FAM fluorescence in cells (in words) (HepG2 cells [4]): No fluorescence

From PMC9356039, “Multifunctional synthetic nano-chaperone for peptide folding and intracellular delivery” (Nature Communications, 2022)
